Patent US5217956A, “Composition and treatment with biologically active peptides and certain anions” (priority 1991, dated 1993)
No end group written: not given here.

Tests used:
[1] = test system: E. cloacae; assay: Killing of E. cloacae: viable organisms on plating after incubation in TSB; format: cell-based, Enterobacter cloacae; conditions: for CFU / EOP (% viable): 15 min at 37° C.
Experimental: LEGEND: Organisms were incubated in a volume of 1 ml in either trypticase soy broth alone or containing substances noted for 15 min at 37° C. An aliquot was then diluted and plated to determine number of viable organisms.

[2] = test system: Pseudomonas aeruginosa; assay: Minimal inhibitory concentration in trypticase soy broth versus Pseudomonas aeruginosa; format: cell-based
Experimental: (§1) Approximately 1,000 bacteria were seeded into about 200 ul of trypticase soy broth. Either magainin 2 carboxy terminal amide, PGLa, or ALSKALSK ALSKALSKALSKALSK (Z-44) were added in increasing concentrations in the absence (Panel A) or presence (Panel B) of 50 mM NaF.

[3] = test system: Enterobacter cloacae; format: cell-based
Experimental: as §1

Molecule: [F-].[Na+] [NaF, sodium fluoride]
- CFU ([1]; NaF 25 mM alone): 10^7
- EOP (% viable) ([1]; NaF 25 mM alone): 100%

Molecule: GIGKFLHSAKKFGKAFVGEIMNS-NH2 [MGN2]
- bacterial killing ([1]; 60 ug/ml MGN2 + 50 mM NaF, 10^7 E. cloacae in 1 ml TSB): all bacteria are killed
- potentiation of effective killing power by addition of fluoride ([1]; 60 ug/ml MGN2 with versus without NaF): over 1 million
- CFU ([1]; peptide 60 ug/ml + NaF 25 mM): 0
- EOP (% viable) ([1]; peptide 60 ug/ml + NaF 25 mM): 0%
- CFU ([1]; peptide 60 ug/ml, no NaF, 10^7 organisms in 1 ml TSB): about 10^6
- CFU ([1]; peptide 60 ug/ml, no NaF, 10^7 organisms in 1 ml TSB, listed as MGN2 (NH2)): 10^6
- EOP (% viable) ([1]; peptide 60 ug/ml, no NaF): 90%
- MINIMAL INHIBITORY CONCENTRATION ([2]; Panel A: absence of NaF): 250 to 500 µg/mL
- MINIMAL INHIBITORY CONCENTRATION ([2]; Panel B: +50 mM NaF): 60 to 125 µg/mL

Molecule: GMASKAGAIAGKIAKVALKAL-NH2 [PGLa]
- MINIMAL INHIBITORY CONCENTRATION [3]: > 250 µg/mL
